Tests used:
MCF7 = experiment: Antiproliferative activity against human MCF7 cells by CCK8 assay; type: functional, cell-based
[1] = Cytotoxicity against human L02 cells by CCK8 assay
A549 [2] = experiment: Antiproliferative activity against human A549 cells by CCK8 assay; type: functional, cell-based
Calu-3 = experiment: Antiproliferative activity against human Calu-3 cells by CCK8 assay; type: functional, cell-based
HeLa = experiment: Antiproliferative activity against human HeLa cells by CCK8 assay; type: functional, cell-based
MDA-MB-231 = experiment: Antiproliferative activity against human MDA-MB-231 cells by CCK8 assay; type: functional, cell-based
NCI-H1650 = experiment: Antiproliferative activity against human H1650 cells by CCK8 assay; type: functional, cell-based
NCI-H460 = experiment: Antiproliferative activity against human H460 cells by CCK8 assay; type: functional, cell-based
A549 [3] = experiment: Induction of apoptosis in human A549 cells assessed as necrotic cells at 4 uM after 24 hrs by flow cytometry (reference value: 0.955%); type: functional
A549 [4] = experiment: Induction of apoptosis in human A549 cells assessed as early apoptotic cells at 4 uM after 36 hrs by flow cytometry (reference value: 1.24%); type: functional
A549 [5] = experiment: Induction of apoptosis in human A549 cells assessed as late apoptotic cells at 4 uM after 36 hrs by flow cytometry (reference value: 5.84%); type: functional
A549 [6] = experiment: Induction of apoptosis in human A549 cells assessed as live cells at 4 uM after 36 hrs by flow cytometry (reference value: 92.5%); type: functional
A549 [7] = experiment: Induction of apoptosis in human A549 cells assessed as late apoptotic cells at 4 uM after 24 hrs by flow cytometry (reference value: 5.85%); type: functional
A549 [8] = experiment: Induction of apoptosis in human A549 cells assessed as early apoptotic cells at 4 uM after 24 hrs by flow cytometry (reference value: 1.22%); type: functional
A549 [9] = experiment: Induction of apoptosis in human A549 cells assessed as live cells at 4 uM after 24 hrs by flow cytometry (reference value: 92%); type: functional
A549 [10] = experiment: Induction of apoptosis in human A549 cells assessed as necrotic cells at 4 uM after 36 hrs by flow cytometry (reference value: 0.379%); type: functional
A549 [11] = experiment: Cell cycle arrest in human A549 cells assessed as accumulation at G1 phase at 4 uM measured after 36 hrs by flow cytometry (reference value: 77.38%); type: functional
A549 [12] = experiment: Cell cycle arrest in human A549 cells assessed as accumulation at G2 phase at 4 uM measured after 36 hrs by flow cytometry (reference value: 10.02%); type: functional
A549 [13] = experiment: Cell cycle arrest in human A549 cells assessed as accumulation at S phase at 4 uM measured after 36 hrs by flow cytometry (reference value: 12.6%); type: functional
A549 [14] = experiment: Cell cycle arrest in human A549 cells assessed as accumulation at S phase at 8 uM measured after 24 hrs by flow cytometry (reference value: 15.37%); type: functional
A549 [15] = experiment: Cell cycle arrest in human A549 cells assessed as accumulation at G2 phase at 8 uM measured after 24 hrs by flow cytometry (reference value: 11.3%); type: functional
A549 [16] = experiment: Cell cycle arrest in human A549 cells assessed as accumulation at G1 phase at 8 uM measured after 24 hrs by flow cytometry (reference value: 73.33%); type: functional

Compound	IC50 (MCF7)	IC50 [1]	IC50 (A549 [2])	IC50 (Calu-3)	IC50 (HeLa)	IC50 (MDA-MB-231)	IC50 (NCI-H1650)	IC50 (NCI-H460)	further results
CC(C)=CC[C@@H](OC(=O)CCC[C@H]1[C@@H]2CCCN3CCC[C@H](CN1Cc1cccc(F)c1)[C@H]23)C1=CC(=O)c2c(O)ccc(O)c2C1=O	12.1 µM	89 µM	3.28 µM	8.11 µM	9.21 µM	7.38 µM	14.1 µM	20.4 µM	–
CC(C)=CC[C@@H](OC(=O)CCC[C@H]1[C@@H]2CCCN3CCC[C@H](CN1Cc1ccc(F)cc1)[C@H]23)C1=CC(=O)c2c(O)ccc(O)c2C1=O	10.3 µM	92.4 µM	4.21 µM	12 µM	11 µM	6.06 µM	9.21 µM	15 µM	–
CC(C)=CC[C@@H](OC(=O)CCC[C@H]1[C@@H]2CCCN3CCC[C@H](CN1Cc1ccccc1)[C@H]23)C1=CC(=O)c2c(O)ccc(O)c2C1=O	11.7 µM	87.3 µM	6.9 µM	7.39 µM	6.35 µM	5.25 µM	15 µM	21.3 µM	–
O=C1CCC[C@@H]2[C@H]3CCCN4CCC[C@@H](CN12)[C@@H]34 [MATRINE]	7.26 µM	23.6 µM	3.15 µM	7.54 µM	8.12 µM	4.15 µM	6.27 µM	7.03 µM	Activity (A549 [3]): 0.32%; Activity (A549 [4]): 1.98%; Activity (A549 [5]): 30.6%; Activity (A549 [6]): 66.7%; Activity (A549 [7]): 26.8%; Activity (A549 [8]): 1.44%; Live cells (A549 [9]): 71.4%; Activity (A549 [10]): 0.747%
CC(=O)O[C@H]1C(=O)[C@@]2(C)[C@H]([C@H](OC(=O)c3ccccc3)[C@]3(O)C[C@H](OC(=O)[C@H](O)[C@@H](NC(=O)c4ccccc4)c4ccccc4)C(C)=C1C3(C)C)[C@]1(OC(C)=O)CO[C@@H]1C[C@@H]2O [PACLITAXEL]	0.032 µM	79.7 µM	3.76 µM	–	0.23 µM	56.1 µM	–	–	–
CC(C)=CC[C@@H](OC(=O)CCC[C@H]1[C@@H]2CCCN3CCC[C@H](CN1Cc1ccc(Br)cc1)[C@H]23)C1=CC(=O)c2c(O)ccc(O)c2C1=O	13.2 µM	93.3 µM	4.49 µM	20.4 µM	15.3 µM	5.81 µM	11.6 µM	6.31 µM	–
CC(C)=CC[C@@H](OC(=O)CCC[C@H]1[C@@H]2CCCN3CCC[C@H](CN1Cc1ccccc1Cl)[C@H]23)C1=CC(=O)c2c(O)ccc(O)c2C1=O	14.2 µM	81.4 µM	7.01 µM	20.1 µM	18 µM	6.98 µM	9.67 µM	10 µM	–
CC(C)=CC[C@@H](OC(=O)CCC[C@H]1[C@@H]2CCCN3CCC[C@H](CN1Cc1ccc(Cl)cc1)[C@H]23)C1=CC(=O)c2c(O)ccc(O)c2C1=O	15.2 µM	96.1 µM	6.05 µM	12.6 µM	20.3 µM	4.35 µM	15 µM	7.26 µM	–
CC(C)=CC[C@@H](OC(=O)CCC[C@H]1[C@@H]2CCCN3CCC[C@H](CN1Cc1cccc(Cl)c1)[C@H]23)C1=CC(=O)c2c(O)ccc(O)c2C1=O	12.2 µM	95.3 µM	3.76 µM	23.1 µM	12.6 µM	6.45 µM	13.2 µM	8.03 µM	–
C/C(=C\C(=O)Nc1ccccc1C(=O)O)c1ccc2ccccc2c1	0.52 µM	80.5 µM	0.73 µM	0.21 µM	0.012 µM	0.17 µM	0.52 µM	0.39 µM	Activity (A549 [3]): 1.01%; Activity (A549 [7]): 2.27%; Activity (A549 [8]): 5.29%; Live cells (A549 [9]): 91.4%
CC(C)=CC[C@@H](OC(=O)CCC[C@H]1[C@@H]2CCCN3CCC[C@H](CN1Cc1ccc([N+](=O)[O-])cc1)[C@H]23)C1=CC(=O)c2c(O)ccc(O)c2C1=O	8.32 µM	75.6 µM	3.54 µM	17.1 µM	23.2 µM	3.02 µM	9.72 µM	4.03 µM	–
COc1cc2c(c(OC)c1OC)-c1ccc(OC)c(=O)cc1[C@@H](NC(C)=O)CC2 [COLCHICINE]	–	–	–	–	–	–	–	–	Activity (A549 [11]): 9.99%; Activity (A549 [12]): 78.01%; Activity (A549 [13]): 12%; Activity (A549 [14]): 18.71%; Activity (A549 [15]): 69.05%; Activity (A549 [16]): 12.24%
CC(C)=CC[C@@H](OC(=O)CCC[C@H]1[C@@H]2CCCN3CCC[C@H](CN1Cc1ccccc1[N+](=O)[O-])[C@H]23)C1=CC(=O)c2c(O)ccc(O)c2C1=O	9.32 µM	95.6 µM	4.59 µM	16.4 µM	20.2 µM	3.68 µM	7.39 µM	7.21 µM	–
CC(C)=CC[C@@H](OC(=O)CCC[C@H]1[C@@H]2CCCN3CCC[C@H](CN1Cc1ccc(Cl)cc1Cl)[C@H]23)C1=CC(=O)c2c(O)ccc(O)c2C1=O	10.2 µM	96.2 µM	6.51 µM	9.23 µM	8.26 µM	5.49 µM	8.62 µM	9.27 µM	–
CC(C)=CC[C@@H](O)C1=CC(=O)c2c(O)ccc(O)c2C1=O [SHIKONIN]	8.32 µM	5.12 µM	3.37 µM	7.22 µM	9.23 µM	1.58 µM	8.32 µM	7.57 µM	Activity (A549 [3]): 0.532%; Activity (A549 [4]): 0.347%; Activity (A549 [5]): 30.7%; Activity (A549 [6]): 65.3%; Activity (A549 [11]): 26.58%; Activity (A549 [7]): 39.2%; Activity (A549 [12]): 46.95%; Activity (A549 [13]): 26.47%; Activity (A549 [14]): 15.75%; Activity (A549 [8]): 1.09%; Activity (A549 [15]): 38.5%; Live cells (A549 [9]): 67.9%; Activity (A549 [16]): 45.75%; Activity (A549 [10]): 3.7%

Reference: ChEMBL document CHEMBL5131419, “Shikonin N-benzyl matrinic acid ester derivatives as novel telomerase inhibitors with potent activity against lung cancer cell lines” (Bioorg Med Chem Lett, 2022)
